What was measured:
SA 25-05 = assay: Endpoint time-kill synergy study; details: ibuprofen with sub-MIC antimicrobial vs antimicrobial alone, 6 hours
[1] = test system: Staphylococcus aureus vancomycin-intermediate (VISA) strain (Mu50); assay: Endpoint CFU counting; details: 6 hours in MH, free ibuprofen
PA01 = assay: Endpoint CFU counting; details: 6 hours in MH, free ibuprofen
[2] = Solubilization in aqueous DMSO/phosphate buffer solution; type: physicochemical; details: aqueous solution of 1% v/v DMSO in phosphate buffer, DMSO (1% v/v) and phosphate (PO4) buffer, read-out: concentration solubilized
[3] = test system: methicillin-resistant Staphylococcus aureus (strain MRSA 0646); assay: Minimum inhibitory concentration (MIC); type: cell-based; details: alone, read-out: MIC
Procedure: (§1) The final concentrations of aztreonam, ceftazidime and vancomycin were 0.06, 0.13, 0.25, 0.5, 1, 2, 4, 8, 16, 32, 64, and 128 μg/ml. The plates were incubated overnight at 37° C. […] Each triplicate was performed at least twice.

[4] = test system: Pseudomonas aeruginosa (strain PA HP3); assay: Minimum inhibitory concentration (MIC); type: cell-based; details: alone
Procedure: as §1

[5] = Bulk and tapped density, compressibility index and Hausner ratio; type: physicochemical
Procedure: In this modified method, a 10 mL graduated cylinder fitted with a molded adapter substituted the 100 mL graduated cylinder in the tapped density tester. The compressibility index (CI) and Hausner ratio (HR) calculations were performed according to the following formulas: The tapped density (rT) calculations were performed using a tapped density tester (Agilent Technologies, Santa Clara, CA, USA) with a modified method from the USP for a small mass of powder. In this modified method, a 10 mL graduated cylinder fitted with a molded adapter substituted the 100 mL graduated cylinder for the calculations of the bulk density (rB) and the use in the tapped density tester. The compressibility index (CI) and the Hausner ratio (HR) calculations were performed according to the following formulas: […]

SMILES: CC(C)Cc1ccc(C(C)C(=O)O)cc1 (stereo not shown) [ibuprofen, 2(4-isobutylphenyl)propanoic acid]
- killing efficacy of ceftazidime and gentamicin (CFU/ml) (SA 25-05): significantly increased the killing efficacy of both ceftazidime and gentamicin
- CFU [1]: Significant reduction in CFU
- CFU (PA01): Significant reduction in CFU
- solubility [2]: ≤ 5000 µg/mL
- MIC [3]: > 128 µg/mL
- MIC [4]: > 128 µg/mL
- bulk density [5]: 0.268 g/mL
- tap density [5]: 0.441 g/mL
- ρB (bulk density) [5]: 0.27 g/mL
- ρT (tapped density) [5]: 0.44 g/mL

— patent US12303594B2, “Antimicrobial and anti-inflammatory compositions” (The Texas A&M University System, priority 2015, dated 2025)
